Molecules are shown by their SMILES. Structures can show the parent of a compound that is named as a salt.

A short description of series [1]: Toxicity of doxorubicin vesicles versus free drug, intravenous tests in mice. It counts as in vivo. The conditions noted are these: 20 mg/kg or equivalent dose. From the text: In nearly all instances of vesicle-entrapped doxorubicin reported in the literature, the loaded vesicles are less toxic than the free drug.
Doxorubicin vesicles can also be prepared with citric acid.

The test system of series [2] is White blood cell (w.b.c.) counts. Put plainly: White blood cell counts after doxorubicin treatment. In kind it is in vivo, CD2F1 mice. The conditions noted are these: doxorubicin dose 40 mg/kg (for the equivalent hydrochloride); four days post therapy. As to the method:
White blood cell (w.b.c.) counts were performed on CD2F1 mice receiving doxorubicin doses of 40 mg/kg (for the equivalent hydrochloride). Mice receiving free drug experienced severe depression in w.b.c. counts: at four days post therapy, counts were only 8.5% of pretherapy values. In contrast, mice treated with doxorubicin vesicles prepared in accordance with this invention (Example III) at the same doxorubicin dosage experienced only moderate suppression in w.b.c. counts: at four days post therapy, counts were 75% of pretherapy values.

Series [3] can be described thus: Maximum tolerated dose of a single intravenous dose. The conditions noted are these: mouse, in vivo, CD2F1 mice, vesicles normalized to the hydrochloride, read-out: maximum tolerated dose (MTD, non-lethal). The procedure: This compares to an MTD of about 40 mg/kg (normalized to the hydrochloride) for doxorubicin vesicles prepared as described in Example III. In contrast, the MTD for doxorubicin vesicles, when prepared as described in Example III with the exception that citric acid was substituted for lactobionic acid, was only about 10 mg/kg, less than the MTD for the free drug.

Regarding `COc1cccc2c1C(=O)c1c(O)c3c(c(O)c1C2=O)C[C@@](O)(C(=O)CO)C[C@@H]3O[C@H]1C[C@H](N)[C@H](O)[C@H](C)O1` [doxorubicin hydrochloride], the tolerance of dose entry in series [1] was “tolerated”. Further, the “w.b.c. counts, % of pretherapy values” in series [2] worked out at 8.5%. Besides, the maximum tolerated dose (MTD) in series [3] is ~25 mg/kg.

The record behind these values is patent EP0394314B2, “MULTIPLE STEP ENTRAPMENT/LOADING PROCEDURE FOR PREPARING […]-[…]” (VESTAR, INC., priority 1987, dated 1989).
